The values that follow come from patent US7642283B2, “Mitochrondrial permeability transition pore affinity labels and modulators” (Hoffmann-La Roche Inc., priority 2003, dated 2010).

One series addresses T1, VDAC1 (Rattus norvegicus, UniProt Q9Z2L0).
T1 construct: from tissue; host or cells: Percoll-purified rat brain and liver mitochondria
Nature of the series: Affinity labeling of rat mitochondria with the tritiated spiro compound, SDS-PAGE and fluorography. In kind it is binding. The following applies: rat brain mitochondria; 10 nM radiolabel. The protocol:
FIG. 6: Affinity-labeling of isolated rat brain (A) and liver (B) mitochondria. Mitochondrial preparations were incubated in the presence of 10 nM Spiro[cyclopentane-1,5′-[5H]dibenzo[a,d]cyclohepten]-2-one,10′,11′-t2-10′,11′-dihydro-3-methylene- for 15 min at 25° C. in presence or absence of various concentrations of Spiro[cyclopentane-1,5′-[5H]dibenzo[a,d]cyclohepten]-2-one,10′,11′-dihydro-3-methylene-(unlabeled). Samples were submitted to SDS-PAGE (see Experimental Procedures section for details) and fluorography. The fluorograms of the gels are shown. The molecular mass scale (kDa) is shown in the ordinate.
(§1) FIG. 8: (A) Effect of monobromobimano (MBBM) and phenylarsino oxide (PhAO) on VDAC1 labeling by Spiro[cyclopentane-1,5′-[5H]dibenzo[a,d]cyclohepten]-2-one,10′,11′-t2-10′,11′-dihydro-3-methylene- in rat brain mitochondria. Experimental conditions were as in the legend to FIG. 5. (B) Effect of various MPTP inhibitors, atractyloside (ATR) and DIDS on VDAC1 labeling by Spiro[cyclopentane-1,5′-[5H]dibenzo[a,d]cyclohepten]-2-one,10′,11′-t2-10′,11′-dihydro-3-methylene- in rat brain mitochondria. Mitochondria were exposed to DIDS for 5 min before rinsing for removal of the free agent and labeling with Spiro[cyclopentane-1,5′-[5H]dibenzo[a,d]cyclohepten]-2-one,10′,11′-t2-10′,11′-dihydro-3-methylene.
Percoll purified mitochondria (˜30 μg protein per sample) were incubated in the presence of 10 nM Spiro[cyclopentane-1,5′-[5H]dibenzo[a,d]cyclohepten]-2-one,10′,11′-t2-10′,11′-dihydro-3-methylene- in a final volume of 200 μl. After incubation for 15 min at 25° C., samples were centrifuged at 25000×g and the mitochondrial pellet rinsed twice with buffer. Samples were then solubilized in sample buffer containing β-mercaptoethanol (1 h at 37° C.) and subjected to SDS-polyacrylamide gel-electrophoresis (SDS-PAGE) on Tris-glycine Novex pre-cast mini-gels (12% monomer concentration, Invitrogen BV, The Netherlands). After Coomassie Blue staining, gels were processed for fluorography by soaking in Amplify™ (Amersham Biosciences), drying and exposing to X-ray BioMax MS film with BioMax MS intensifying screen (Kodak) at −80° C. for the appropriate time.
as §1, with “Effect” for “FIG. 8: (A) Effect”, “monobromobimano” for “monobromobimano (MBBM)”, “oxide” for “oxide (PhAO)”, “Example 12 (FIG. 8A).” for “the legend to FIG. 5. (B)”, “Spiro[cyclopentane-1,5′-[5H]dibenzo[a,d]cyclohepten]-2-one,10′,11′-t2-10′,11′-dihydro-3-methylene (FIG. 8B).” for “Spiro[cyclopentane-1,5′-[5H]dibenzo[a,d]cyclohepten]-2-one,10′,11′-t2-10′,11′-dihydro-3-methylene.”

Series [1] relates to T2, MPTP.
T2 construct: other: n=2; 30 min after addition of 200 μM Ca2+
In words: Ca2+-induced swelling in deenergized liver mitochondria. It counts as biochemical. Particulars: n=2; 30 min after addition of 200 μM Ca2+; read-out: EC50 of MPTP inhibition in deenergized mitochondria.

Series [2] deals with mitochondrial respiration. Nature of the series: Mitochondrial respiration (oxygen consumption). It counts as biochemical. The following applies: at concentrations completely blocking MPTP. As for the experimental part: Isolated liver mitochondria (˜0.5 mg protein ml^−1) were incubated in a batch mode in the presence of 20 nM [^3H]TPP ([^3H]Tetraphenylphosphonium ([^3H]TPP, 24-29 Ci/mmol) from Amersham Biosciences, Switzerland) for 15 min at 25° C. Aliquots (100 μl) of the mixture were then distributed into 96-well plates containing 100 μl of the test compound and the incubation prolonged for 15 min at 25° C. Samples were then filtered through 0.3% (v/v) polyethyleneimmine-treated GF/B glass fiber filters using a 96-channel cell harvester and the filters washed twice with 1 ml of buffer. Fifty μl of MICROSCINT 40 (Packard) were then added to each well, before counting for radioactivity in a TopCount scintillation counter (Packard). Non-specific uptake was determined in the presence of 1 mM unlabeled TPP or 1 μM carbonylcianide-p-trifluoromethoxyphenyl hydrazone (FCCP). Mitochondrial oxygen consumption was measured polarographically at 25° C. using a Clark-type electrode.
Compounds found to inhibit MPTP where then counter-screened using uptake of the potentiometric probe [^3H]-TPP (Hoek, J. B., Nicholls, D. G. & Williamson, J. R. (1980) J. Biol. Chem. 255, 1458-1564) for determining in a semi-quantitative, but rapid way whether they interfered with mitochondrial respiration (e.g. protonophores). […]

The target in another series is Cyp-D (Homo sapiens, UniProt P30405). Nature of the series: Cyp-D peptidyl prolyl cis-trans isomerase enzymatic activity. It counts as biochemical. The following applies: at concentrations completely blocking MPTP.
Cyp-D, sequence (P30405 30-207): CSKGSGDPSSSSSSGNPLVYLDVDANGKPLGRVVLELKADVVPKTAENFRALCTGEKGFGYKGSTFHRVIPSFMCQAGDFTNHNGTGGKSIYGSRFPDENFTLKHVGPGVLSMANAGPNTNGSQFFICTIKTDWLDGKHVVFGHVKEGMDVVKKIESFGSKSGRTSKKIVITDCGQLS
The target of series [3] is T3, MPTP (Rattus norvegicus, UniProt Q9Z2L0).
T3 construct: other: n=2; glutamate/malate; other: glutamate/malate; 20 min; mean±SEM; unit not given; other: 300 nM; relieved by 50 μM Ub5
T3 sequence (Q9Z2L0 2-283): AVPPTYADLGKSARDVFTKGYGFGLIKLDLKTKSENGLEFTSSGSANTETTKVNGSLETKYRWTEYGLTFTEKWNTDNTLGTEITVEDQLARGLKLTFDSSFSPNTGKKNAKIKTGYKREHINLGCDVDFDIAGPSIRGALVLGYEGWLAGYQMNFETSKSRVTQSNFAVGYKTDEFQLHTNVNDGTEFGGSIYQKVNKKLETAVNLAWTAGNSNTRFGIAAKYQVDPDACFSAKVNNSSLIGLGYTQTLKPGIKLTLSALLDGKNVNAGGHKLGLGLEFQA
Nature of the series: Ca2+-retention capacity of rat brain mitochondria (Calcium Green-5N). In kind it is biochemical. As for the experimental part: FIG. 4: (A) Effect of Spiro[cyclopentane-1,5′-[5H]dibenzo[a,d]cyclohepten]-2-one,10′,11′-dihydro-3-methylene- and CsA on Ca^2+-retention capacity of rat brain mitochondria. The incubation medium contained 0.2 M sucrose, 10 mM Tris-Mops, pH 7.4, 1 mM Pi-Tris, 5 μM EGTA and 5 mM glutamate/2.5 mM malate, buffered to pH 7.4 with Tris, containing 0.01% (w/v) bovine serum albumin and 1 μM Calcium Green-5N. The final volume was 2.5 ml. Trace (a) control, (b) 1 μM CsA, (c) 1 μM Spiro[cyclopentane-1,5′-[5H]dibenzo[a,d]cyclohepten]-2-one,10′,11′-dihydro-3-methylene- and (d) 1 μM CsA plus 1 μM Spiro[cyclopentane-1,5′-[5H]dibenzo[a,d]cyclohepten]-2-one,10′,11′-dihydro-3-methylene-. Each fluorescence spike corresponds to addition of 5 μM Ca^2+. (B) Comparison of Ca^2+-retention capacity in liver (a) and brain mitochondria (b).
Effect of Spiro[cyclopentane-1,5′-[5H]dibenzo[a,d]cyclohepten]-2-one,10′,11′-dihydro-3-methylene- and CsA on Ca^2+-retention capacity of rat brain mitochondria (FIG. 4). Measurement of extramitochondrial Ca^2+ was determined using a Perkin-Elmer LS-50B fluorimeter controlled by the FL WinLab computer program. […] The final volume was 2.5 ml and the cuvette was thermostated at 25° C. Brain mitochondria were then subjected to a train of 5 μM Ca^2+ additions (˜150 nmol mg protein^−1). Extramitochondrial Ca^2+ was monitored at excitation/emission wavelengths of 505-535. […] The Ca^2+-retention capacity in liver (a) and brain mitochondria (b) were also compared (FIG. 4B).
The effect of Spiro[cyclopentane-1,5′-[5H]dibenzo[a,d]cyclohepten]-2-one,10′,11′-dihydro-3-methylene- at inhibiting MPTP was also investigated in mitochondria isolated from rat forebrain. […] Due to the difficulties mentioned above, the effect of Spiro[cyclopentane-1,5′-[5H]dibenzo[a,d]cyclohepten]-2-one,10′,11′-dihydro-3-methylene- on MPTP in brain mitochondria was more accurately investigated by subjecting mitochondria isolated from rat forebrain to a series of Ca^2+ pulses (5 μM, ˜150 nmol mg protein^−1) and by monitoring extramitochondrial Ca^2+ or using fluororescent probes.

The target of another series is T4, MPTP (Rattus norvegicus).
T4 construct: other: n=2; glutamate/malate; other: glutamate/malate; 20 min; mean±SEM; unit not given; other: 300 nM; relieved by 50 μM Ub5
T4 sequence (Q9Z2L0 2-283): as above
In words: Ca2+-induced swelling (MPTP) in rat liver mitochondria energised with succinate. It counts as biochemical. The following applies: succinate 5 mM + 2 μM rotenone; 80 μM Ca2+; ΔA540 20 min after CaCl2. The protocol: Ca^2+-induced swelling (sucrose permeability) in energized mitochondria was assayed at 25° C. in 96 well-plates by measuring changes in absorbance at 540 nm by means of a […]ax 250 spectrophometer controlled by the SOFTmax PRO™ software (Molecular Devices, Switzerland). The incubation medium contained 0.2 M sucrose, 10 mM Tris-Mops, pH 7.4, 1 mM Pi-Tris, 5 μM EGTA. Succinate (5 mM, in the presence of 2 μM rotenone) or 5 mM glutamate/2.5 mM malate, buffered to pH 7.4 with Tris, were used as respiratory substrates. After a short (˜5 min) preincubation in presence or absence of test compounds, mitochondrial swelling was induced by the addition of 20 μl CaCl2 at final concentrations ranging from 40 to 80 μM, depending on respiratory substrates and Ca^2+ sensitivity of the mitochondrial preparation. The final incubation volume was 0.2 ml and the concentration of mitochondria was ˜0.5 mg mitochondrial protein ml^−1. Swelling kinetics was followed for up to 30 min at 25° C. Absorbance readings were taken every 12 sec and the plate was shaken for 3 s between readings to ensure oxygen diffusion during the experiment and to avoid sedimentation of the mitochondria.
The incubation medium contained 0.2 M sucrose, 10 mM Tris-Mops, pH 7.4, 1 mM Pi-Tris, 5 μM EGTA.

Series [4] relates to MPTP. In words: Ca2+-induced depolarisation (membrane potential, Rhodamine-123) of rat brain mitochondria. It counts as biochemical. The following applies: 50 μM Ub5 alone.
Description: (B) Ca^2+-induced depolarisation of rat brain mitochondria. The medium used was as in the legend to FIG. 4, except that 0.5 μM Rhodamine-123 was added instead of Calcium Green-5N, and MPTP was induced by addition of 20 μM Ca^2+. Trace a, control (Ca^2+ alone), b, 300 nM Spiro[cyclopentane-1,5′-[5H]dibenzo[a,d]cyclohepten]-2-one,10′,11′-dihydro-3-methylene-, c, 300 nM Spiro[cyclopentane-1,5′-[5H]dibenzo[a,d]cyclohepten]-2-one,10′,11′-dihydro-3-methylene- and 50 μM Ub5.
The effect of Spiro[cyclopentane-1,5′-[5H]dibenzo[a,d]cyclohepten]-2-one,10′,11′-dihydro-3-methylene- at inhibiting MPTP was also investigated in mitochondria isolated from rat forebrain. […] Due to the difficulties mentioned above, the effect of Spiro[cyclopentane-1,5′-[5H]dibenzo[a,d]cyclohepten]-2-one,10′,11′-dihydro-3-methylene- on MPTP in brain mitochondria was more accurately investigated by subjecting mitochondria isolated from rat forebrain to a series of Ca^2+ pulses (5 μM, ˜150 nmol mg protein^−1) and by monitoring extramitochondrial Ca^2+ or using fluororescent probes. […] Virtually identical results were obtained from experiments where Δψm was monitored after a series of Ca^2+ additions (5 μM each). Each Ca^2+ additions caused a reversible decreases in Δψm, until MPTP opening completely collapsed Δψm and no further fluorescence increase could observed after addition of the protonophore FCCP.
The mark [5] stands for this setting: Ca2+ pulses, rat brain mitochondria.

Where two headings read alike, the source gives them in different places.

T1 sequence (Q9Z2L0 whole entry): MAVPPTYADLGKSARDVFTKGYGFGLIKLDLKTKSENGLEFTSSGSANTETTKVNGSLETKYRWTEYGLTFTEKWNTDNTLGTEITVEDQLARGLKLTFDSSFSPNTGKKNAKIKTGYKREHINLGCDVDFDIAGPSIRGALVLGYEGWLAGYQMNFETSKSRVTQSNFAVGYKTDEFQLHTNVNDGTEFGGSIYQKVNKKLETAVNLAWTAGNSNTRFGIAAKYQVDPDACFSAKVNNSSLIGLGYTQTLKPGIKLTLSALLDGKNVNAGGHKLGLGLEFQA

`CCN(CC)CC1COc2ccc(Br)cc2C1=O` (stereo not shown) [6-bromo-3-diethylaminomethyl-chroman-4-one]: the “Effect on VDAC1 labeling (incorporation of radioactivity) by the tritiated spiro compound” value (“Effect on VDAC1 labeling” below) at VDAC1 is “inhibited”.

A word on the EC50: it is the concentration needed to bring the measured effect to its halfway point. Turning to `C=C1COc2ccc(Br)cc2C1=O` [6-bromo-3-methylene-chroman-4-one], the EC50 with MPTP [1] was found to be 2.8 µM. Besides, in series [2], the “Inhibition of mitochondrial respiration (basal, ADP-induced and uncoupled)” value is reported as “did not inhibit”. Moreover, the “Inhibition of Cyp-D peptidyl prolyl cis-trans isomerase activity” value at Cyp-D is recorded as “did not inhibit”. Moreover, the “Additive effect when combined with the spiro compound (Example 2)” value (from here on “Additive effect when combined”) on MPTP [3] (setting [5]) is reported as “no additive effect”. In addition, the “Effect on VDAC1 labeling” value on VDAC1 is listed as “inhibited”.

Take `C=C1[C@@H]2CC[C@H]3[C@]4(C)C[C@H](O[C@@H]5O[C@H](CO)[C@@H](OS(=O)(=O)O)[C@H](OS(=O)(=O)O)[C@H]5OC(=O)CC(C)C)C[C@@H](C(=O)O)[C@H]4CC[C@]3(C2)[C@H]1O` [ATR, atractyloside]: the “Effect on VDAC1 labeling” value at VDAC1 was “did not affect”.

`CO[C@H](C/C=C\C=C\CC/C=C/C[C@H](C)/C=C/C(=C\C(=O)O)CC(=O)O)/C(C)=C\C=C(/C)C(=O)O` [Bongkrekic acid]: the EC50 at MPTP (Rattus norvegicus) turned out to be 11.5 µM. The “Additive effect when combined” value at MPTP [3] (setting [5]) is reported as “additive”. Moreover, at VDAC1, the “Effect on VDAC1 labeling” value is reported as “did not affect”.

`O=S(=O)(O)c1cc(N=C=S)ccc1C=Cc1ccc(N=C=S)cc1S(=O)(=O)O` [DIDS, 4,4′-diisothiocyanatostilbene-2,2′-disulfonic acid]: the “Effect on VDAC1 labeling” value on VDAC1 is reported as “appeared to inhibit”.

Turning to `CN1CCN(CCCN2c3ccccc3Sc3ccc(C(F)(F)F)cc32)CC1` [Trifluoroperazine], the EC50 at MPTP (Rattus norvegicus) was 9.4 µM. Besides, at MPTP [3], the “Additive effect when combined” value was “additive”. In addition, at VDAC1, the “Effect on VDAC1 labeling” value is listed as “did not affect”.

Consider `COC1=C(OC)C(=O)C(C/C=C(\C)CC/C=C(\C)CC/C=C(\C)CC/C=C(\C)CCC=C(C)C)=C(C)C1=O` [Ub5, ubiquinone5, reference compound], for which the “Effect of Ub5 alone” value with MPTP [4] was “no effect”.

In the case of `COC1=C(OC)C(=O)C(C)=CC1=O` [Ubiquinone0], the EC50 at MPTP (Rattus norvegicus) stood at 23.2 µM; in the series on MPTP [1], 4.9 µM. Moreover, the “Additive effect when combined” value at MPTP [3] (setting [5]) was “no such additive effect”. In addition, at VDAC1, the “Effect on VDAC1 labeling” value is “Inhibition”.
